Laboratory results as given in US20230123104A1, “CRYSTAL OF TRICYCLIC COMPOUND ACTING ON CRBN PROTEIN AND PREPARATION METHOD THEREFOR” (CHIA TAI TIANQING PHARMACEUTICAL GROUP CO., LTD., priority 2020, published 2023).

Columns and labels:
Type in all cases: physicochemical
[1] = Solid stability test at high temperature, at high humidity, and in intense light
Protocol: According to the “Guidelines for the Stability Test of APIs and Preparations” (General Principles 9001 of the Four Parts of the Chinese Pharmacopoeia, 2020 Edition), the stability of the crystalline form A of the compound of formula (I) was investigated at high temperature (60° C., open), at high humidity (room temperature/relative humidity at 92.5%, open), and in intense light (5000±500 Lux, 90 μw/cm^2, open).
1.5 g of the crystalline form A of the compound of formula (I) was weighed into an open measuring flask and spread out to form a thin layer. The sample for high temperature test was placed in an electrothermal drying oven and investigated, and the sample for high humidity test was placed in an integrated drug stability test chamber and investigated. Samples were taken on days 5, 10 and 30 for analysis, and the results were compared with the preliminary results of day 0. The sample for intense light test was placed in an open flask. Samples were taken on days 5 and 10 for analysis, and the results were compared with the preliminary results of day 0.

[2] = Stability test of crystalline form A in different solvents (XRPD); settings: methanol, ethanol, acetone, acetonitrile, tetrahydrofuran, methyl tert-butyl ether, ethyl acetate, water, acetonitrile or acetone with water
Protocol: 50-mg portions of the crystalline form A of the compound of formula (I) were weighed into different 2.0 mL glass vials, and appropriate amounts of single or mixed solvents in the table below were added. After the addition of magnetic stir bars, the samples were stirred on a magnetic stirrer (25° C./50° C., 700 rpm) in the dark. The 25° C. samples were stirred for 1 week and centrifuged, and the resulting solid samples were dried in a vacuum oven at 40° C. overnight. The 50° C. samples were stirred for 2 days and centrifuged in a centrifuge tube with a filter membrane, and the solvent in the lower layer was discarded. The samples were let stand in a fume hood for 1 h so that they were air-dried. The resulting dried samples were subjected to XRPD analysis to determine their crystalline forms.

[3] = Solid stability test under accelerated conditions (40° C./relative humidity at 75%, sealed)
Protocol: According to the “Guidelines for the Stability Test of APIs and Preparations” (General Principles 9001 of the Four Parts of the Chinese Pharmacopoeia, 2020 Edition), the stability of the crystalline form A of the compound of formula (I) was investigated under accelerated conditions at high temperature and high humidity (40° C./relative humidity at 75%, sealed).
(§1) 1.5 g of the crystalline form A of the compound of formula (I) was weighed into a double-layer low-density polyethylene bag. Each layer a the low-density polyethylene bag was sealed with a binding tie, and the bag was put into an aluminum foil bag. Samples were taken in months 1, 2, 3 and 6 for analysis, and the results were compared with the preliminary results of day 0. This experiment was repeated twice, each with a different batch of the crystalline form A of the compound of formula (I).

[4] = Solid stability test under long-term conditions (25° C./relative humidity at 60%, sealed)
Protocol: According to the “Guidelines for the Stability Test of APIs and Preparations” (General Principles 9001 of the Four Parts of the Chinese Pharmacopoeia, 2020 Edition), the stability of the crystalline form A of the compound of formula (I) was investigated under long-terns conditions (25° C./relative humidity at 60%, sealed).
as §1, with “layer of” for “layer a”, “foil hag.” for “foil bag.”, “months” for “months 1, 2,”

[5] = Hygroscopicity study by dynamic vapor sorption (DVS)
Protocol: In the present application, dynamic vapor sorption (DVS) analysis is performed under the following conditions: instrument: SMS DVS Advantage-1; equilibration: dm/dt=0.01%/min (shortest: 60 min, longest: 180 min); drying: drying at 0% RH for 120 min; RH (%) test gradient: 10%; range of RH (%) test gradient: 0%-90%-0%.
The evaluation of hygroscopicity was classified as follows:
Dynamic Vapor Sorption Apparatus SMS DVS Advantage-1
10-15 mg of the crystalline form A of the compound of formula (I) was placed in a DVS sample tray and tested.

[6] = High humidity (room temperature/relative humidity 92.5%, open), Day 5
[7] = High humidity (room temperature/relative humidity 92.5%, open), Day 10
[8] = High humidity (room temperature/relative humidity 92.5%, open), Day 30
[9] = High temperature (60° C., open), Day 5
[10] = High temperature (60° C., open), Day 10
[11] = High temperature (60° C., open), Day 30
[12] = Intense light (5000 ± 500 Lux, 90 μw/cm^2, open), Day 5
[13] = Intense light (5000 ± 500 Lux, 90 μw/cm^2, open), Day 10
[14] = Batch 1, 40° C./relative humidity at 75%, sealed, Month 1
[15] = Batch 1, 40° C./relative humidity at 75%, sealed, Month 2
[16] = Batch 1, 40° C./relative humidity at 75%, sealed, Month 3
[17] = Batch 1, 40° C./relative humidity at 75%, sealed, Month 6
[18] = Batch 2, 40° C./relative humidity at 75%, sealed, Month 1
[19] = Batch 2, 40° C./relative humidity at 75%, sealed, Month 2
[20] = Batch 2, 40° C./relative humidity at 75%, sealed, Month 3
[21] = Batch 2, 40° C./relative humidity at 75%, sealed, Month 6
[22] = Batch 1, 25° C./relative humidity at 60%, sealed, Month 3
[23] = Batch 1, 25° C./relative humidity at 60%, sealed, Month 6
[24] = Batch 2, 25° C./relative humidity at 60%, sealed, Month 3
[25] = Batch 2, 25° C./relative humidity at 60%, sealed, Month 6

O=C1CCC(c2noc3ccc4[nH]ccc4c23)C(=O)N1 (stereo not drawn)
Content ([1]; Day 0): 98.9%
Total impurities ([1]; Day 0): <0.05%
Content [1, 6]: 100.7%
Total impurities [1, 6]: <0.05%
Content [1, 7]: 100.2%
Total impurities [1, 7]: <0.05%
Content [1, 8]: 100.4%
Total impurities [1, 8]: <0.05%
Content [1, 9]: 99.9%
Total impurities [1, 9]: <0.05%
Content [1, 10]: 100.2%
Total impurities [1, 10]: <0.05%
Content [1, 11]: 100.2%
Total impurities [1, 11]: <0.05%
Content [1, 12]: 100.7%
Total impurities [1, 12]: <0.05%
Content [1, 13]: 100.0%
Total impurities [1, 13]: <0.05%
solid stability (conclusion) ([1]; at high temperature, at high humidity, and in intense light): good stability
stability in solvents (conclusion) [2]: good stability
Content [3, 14]: 100.1%
Total impurities [3, 14]: 0.05%
Content [3, 15]: 100.4%
Total impurities [3, 15]: <0.05%
Content [3, 16]: 100.4%
Total impurities [3, 16]: <0.05%
Content [3, 17]: 98.1%
Total impurities [3, 17]: <0.05%
Content ([3]; Batch 1, Day 0): 98.9%
Total impurities ([3]; Batch 1, Day 0): <0.05%
Content [3, 18]: 100.0%
Total impurities [3, 18]: 0.05%
Content [3, 19]: 100.2%
Total impurities [3, 19]: <0.05%
Content [3, 20]: 100.2%
Total impurities [3, 20]: <0.05%
Content [3, 21]: 99.2%
Total impurities [3, 21]: <0.05%
Appearance ([3]; Batch 2, Day 0): White powder
Content ([3]; Batch 2, Day 0): 100.2%
Total impurities ([3]; Batch 2, Day 0): <0.05%
solid stability (conclusion) ([3]; accelerated conditions at 40° C. with relative humidity at 75%): good stability
Content [4, 22]: 99.8%
Total impurities [4, 22]: <0.05%
Content [4, 23]: 99.2%
Total impurities [4, 23]: <0.05%
Content ([4]; Batch 1, Day 0): 98.9%
Total impurities ([4]; Batch 1, Day 0): <0.05%
Appearance [4, 24]: White powder
Content [4, 24]: 100.4%
Total impurities [4, 24]: <0.05%
Appearance [4, 25]: White powder
Content [4, 25]: 100.4%
Total impurities [4, 25]: <0.05%
Appearance ([4]; Batch 2, Day 0): White powder
Content ([4]; Batch 2, Day 0): 100.2%
Total impurities ([4]; Batch 2, Day 0): <0.05%
solid stability (conclusion) ([4]; long-term conditions at 25° C. with relative humidity at 60%): good stability
hygroscopicity classification ([5]; 25° C., 80% RH, DVS): no or almost no hygroscopicity
crystalline form after DVS test ([5]; after DVS): remained unchanged
